Data: the NIST ThermoML archive (doi:10.1021/je900210h)
Numbers after ± are expanded uncertainties.

Details: Fluid (supercritical or subcritical phases), Coaxial cylinder method

FCC(F)(F)F [1,1,1,2-tetrafluoroethane]
Details	thermal conductivity [W/m/K]
385.18 K, 4959 kPa	0.0526 ± 0.0021
385.18 K, 4978 kPa	0.0528 ± 0.0022
385.18 K, 5000 kPa	0.053 ± 0.002
385.18 K, 5022 kPa	0.053 ± 0.002
385.18 K, 5042 kPa	0.053 ± 0.002
385.18 K, 5058 kPa	0.053 ± 0.002
385.18 K, 5080 kPa	0.053 ± 0.002
385.18 K, 5100 kPa	0.053 ± 0.002
385.18 K, 5120 kPa	0.053 ± 0.002
385.18 K, 5151 kPa	0.0528 ± 0.0022
385.18 K, 5179 kPa	0.0526 ± 0.0021
385.18 K, 5224 kPa	0.0524 ± 0.0021
385.18 K, 5254 kPa	0.0522 ± 0.0021
385.19 K, 4900 kPa	0.0512 ± 0.0021
385.19 K, 4918 kPa	0.0518 ± 0.0021
385.19 K, 5296 kPa	0.0518 ± 0.0021
385.19 K, 5322 kPa	0.0518 ± 0.0021
385.19 K, 5358 kPa	0.0516 ± 0.0021
385.19 K, 5402 kPa	0.0516 ± 0.0021
385.19 K, 5454 kPa	0.0514 ± 0.0021
385.19 K, 5513 kPa	0.0512 ± 0.0021
385.2 K, 4880 kPa	0.0505 ± 0.0021
385.21 K, 4840 kPa	0.0488 ± 0.002
385.22 K, 4820 kPa	0.048 ± 0.002
385.23 K, 4800 kPa	0.0471 ± 0.002
385.25 K, 4760 kPa	0.0458 ± 0.002
385.26 K, 4730 kPa	0.0446 ± 0.0019
385.28 K, 4700 kPa	0.0431 ± 0.0019
385.29 K, 4670 kPa	0.0421 ± 0.002
385.3 K, 4640 kPa	0.0411 ± 0.0019
385.31 K, 4610 kPa	0.0401 ± 0.0018
385.33 K, 4580 kPa	0.0393 ± 0.0018
385.34 K, 4540 kPa	0.0382 ± 0.0017
385.36 K, 4500 kPa	0.0371 ± 0.0017
385.37 K, 4460 kPa	0.0363 ± 0.0017
385.39 K, 4410 kPa	0.0352 ± 0.0016
385.41 K, 4360 kPa	0.0343 ± 0.0016
385.42 K, 4310 kPa	0.0335 ± 0.0016
385.57 K, 4260 kPa	0.0328 ± 0.0015
385.59 K, 4200 kPa	0.032 ± 0.002
385.61 K, 4120 kPa	0.0311 ± 0.0015
385.72 K, 5700 kPa	0.0514 ± 0.0021
385.72 K, 5714 kPa	0.0516 ± 0.0021
385.75 K, 4060 kPa	0.0305 ± 0.0015
385.78 K, 3920 kPa	0.0293 ± 0.0014
387.19 K, 7800 kPa	0.0564 ± 0.0023
387.2 K, 7501 kPa	0.0559 ± 0.0022
387.22 K, 7002 kPa	0.0545 ± 0.0022
387.23 K, 6650 kPa	0.0536 ± 0.0022
387.25 K, 6371 kPa	0.0527 ± 0.0021
387.27 K, 9502 kPa	0.0597 ± 0.0024
387.28 K, 18006 kPa	0.0691 ± 0.0027
387.29 K, 17000 kPa	0.0682 ± 0.0026
387.3 K, 8468 kPa	0.0578 ± 0.0023
387.3 K, 16290 kPa	0.0676 ± 0.0026
387.32 K, 14910 kPa	0.0663 ± 0.0026
387.33 K, 13500 kPa	0.0648 ± 0.0025
387.33 K, 14002 kPa	0.0653 ± 0.0025
387.34 K, 13000 kPa	0.0642 ± 0.0025
387.37 K, 11008 kPa	0.0619 ± 0.0024
387.37 K, 11503 kPa	0.0625 ± 0.0025
392.65 K, 180 kPa	0.02136 ± 0.0012
394.44 K, 6457 kPa	0.0507 ± 0.0021
394.44 K, 6523 kPa	0.0509 ± 0.0021
394.44 K, 6557 kPa	0.0511 ± 0.0021
394.45 K, 6140 kPa	0.0494 ± 0.002
394.45 K, 6200 kPa	0.0496 ± 0.0021
394.45 K, 6260 kPa	0.0498 ± 0.0021
394.45 K, 6300 kPa	0.05 ± 0.002
394.45 K, 6399 kPa	0.0503 ± 0.0021
394.46 K, 5940 kPa	0.0483 ± 0.002
394.46 K, 5980 kPa	0.0487 ± 0.002
394.46 K, 6044 kPa	0.0491 ± 0.002
394.46 K, 6100 kPa	0.0492 ± 0.002
394.47 K, 5760 kPa	0.0472 ± 0.002
394.47 K, 5767 kPa	0.0472 ± 0.002
394.47 K, 5800 kPa	0.0476 ± 0.002
394.47 K, 5811 kPa	0.0476 ± 0.002
394.47 K, 5851 kPa	0.048 ± 0.002
394.47 K, 5886 kPa	0.048 ± 0.002
394.49 K, 5583 kPa	0.0453 ± 0.0019
394.49 K, 5626 kPa	0.0457 ± 0.0019
394.49 K, 5641 kPa	0.046 ± 0.002
394.5 K, 5527 kPa	0.0444 ± 0.0019
394.52 K, 5428 kPa	0.043 ± 0.002
394.53 K, 5366 kPa	0.0419 ± 0.0018
394.54 K, 5314 kPa	0.0411 ± 0.0018
394.55 K, 5300 kPa	0.0409 ± 0.0018
394.56 K, 5246 kPa	0.04 ± 0.002
394.56 K, 6908 kPa	0.0519 ± 0.0021
394.56 K, 7067 kPa	0.0523 ± 0.0021
394.57 K, 5176 kPa	0.039 ± 0.002
394.57 K, 6665 kPa	0.0513 ± 0.0021
394.57 K, 6720 kPa	0.0515 ± 0.0021
394.57 K, 6754 kPa	0.0515 ± 0.0021
394.57 K, 6800 kPa	0.0515 ± 0.0021
394.6 K, 5055 kPa	0.0374 ± 0.0017
394.68 K, 7457 kPa	0.0533 ± 0.0022
394.68 K, 7521 kPa	0.0535 ± 0.0022
394.68 K, 7635 kPa	0.0537 ± 0.0022
394.69 K, 7159 kPa	0.0526 ± 0.0021
394.69 K, 7321 kPa	0.0528 ± 0.0022
394.81 K, 7706 kPa	0.0538 ± 0.0022
394.81 K, 7827 kPa	0.0541 ± 0.0022
394.88 K, 4950 kPa	0.036 ± 0.002
394.88 K, 4978 kPa	0.0363 ± 0.0016
394.89 K, 4890 kPa	0.0353 ± 0.0016
394.91 K, 4821 kPa	0.0346 ± 0.0016
394.93 K, 4722 kPa	0.0335 ± 0.0016
394.94 K, 4649 kPa	0.0328 ± 0.0015
394.95 K, 4583 kPa	0.0322 ± 0.0015
395.23 K, 4495 kPa	0.0315 ± 0.0015
395.24 K, 4405 kPa	0.0309 ± 0.0015
403.68 K, 7203 kPa	0.0484 ± 0.002
403.69 K, 7105 kPa	0.048 ± 0.002
403.69 K, 7364 kPa	0.049 ± 0.002
403.82 K, 6973 kPa	0.0475 ± 0.002
403.83 K, 6852 kPa	0.0468 ± 0.002
404.23 K, 6723 kPa	0.046 ± 0.002
404.23 K, 6754 kPa	0.0461 ± 0.0019
404.34 K, 6434 kPa	0.044 ± 0.002
404.34 K, 6516 kPa	0.0446 ± 0.0019
404.36 K, 6559 kPa	0.0449 ± 0.0019
404.36 K, 6640 kPa	0.0453 ± 0.0019
404.38 K, 6342 kPa	0.0433 ± 0.0019
404.4 K, 6039 kPa	0.041 ± 0.002
404.4 K, 6080 kPa	0.0413 ± 0.0018
404.42 K, 5967 kPa	0.0402 ± 0.0018
404.43 K, 5860 kPa	0.0393 ± 0.0017
404.43 K, 5908 kPa	0.0396 ± 0.0017
404.44 K, 5814 kPa	0.0388 ± 0.0017
404.45 K, 5750 kPa	0.0383 ± 0.0017
404.46 K, 5668 kPa	0.0375 ± 0.0017
404.47 K, 5579 kPa	0.0368 ± 0.0017
404.48 K, 5494 kPa	0.0361 ± 0.0016
404.49 K, 5419 kPa	0.0355 ± 0.0016
404.5 K, 5330 kPa	0.0349 ± 0.0016
404.51 K, 5242 kPa	0.0342 ± 0.0016
404.65 K, 5162 kPa	0.0336 ± 0.0016
404.67 K, 5039 kPa	0.0329 ± 0.0015
404.68 K, 4909 kPa	0.0321 ± 0.0015
404.7 K, 4754 kPa	0.0312 ± 0.0015
404.71 K, 4641 kPa	0.0307 ± 0.0015
404.73 K, 4451 kPa	0.0298 ± 0.0014
404.73 K, 4467 kPa	0.0298 ± 0.0014
404.73 K, 4523 kPa	0.0301 ± 0.0014
404.76 K, 4201 kPa	0.0287 ± 0.0014
404.76 K, 4278 kPa	0.029 ± 0.002
404.77 K, 4070 kPa	0.0283 ± 0.0014
405.05 K, 3914 kPa	0.0278 ± 0.0014
405.06 K, 3790 kPa	0.0274 ± 0.0014
405.07 K, 3698 kPa	0.0271 ± 0.0014
405.25 K, 2700 kPa	0.0252 ± 0.0013
405.25 K, 2863 kPa	0.0254 ± 0.0013
405.26 K, 2524 kPa	0.0249 ± 0.0013
405.27 K, 2343 kPa	0.0247 ± 0.0013
405.34 K, 3411 kPa	0.0264 ± 0.0013
405.46 K, 8835 kPa	0.0521 ± 0.0021
405.47 K, 8558 kPa	0.0515 ± 0.0021
405.48 K, 7814 kPa	0.0499 ± 0.0021
405.49 K, 7506 kPa	0.049 ± 0.002
405.81 K, 1930 kPa	0.0243 ± 0.0013
406.09 K, 1196 kPa	0.0236 ± 0.0013
406.88 K, 18500 kPa	0.0652 ± 0.0025
406.9 K, 16345 kPa	0.063 ± 0.003
406.91 K, 15679 kPa	0.0623 ± 0.0025
406.93 K, 14350 kPa	0.0608 ± 0.0024
406.94 K, 13921 kPa	0.0603 ± 0.0024
406.96 K, 12915 kPa	0.0591 ± 0.0024
406.99 K, 11426 kPa	0.0569 ± 0.0023
407 K, 10911 kPa	0.0562 ± 0.0023
407.01 K, 10638 kPa	0.0557 ± 0.0022
426.86 K, 160 kPa	0.02469 ± 0.0013
436.44 K, 180 kPa	0.02542 ± 0.0013
446.25 K, 200 kPa	0.02665 ± 0.0014
446.25 K, 760 kPa	0.02661 ± 0.0014
451.17 K, 180 kPa	0.02683 ± 0.0014
455.69 K, 100 kPa	0.0268 ± 0.0014
455.92 K, 680 kPa	0.02719 ± 0.0014
466.31 K, 650 kPa	0.02846 ± 0.0014
476.24 K, 100 kPa	0.02922 ± 0.0014
496.18 K, 100 kPa	0.0311 ± 0.0015
515.97 K, 100 kPa	0.03304 ± 0.0015
